Experimental data from patent publication US20150216794A1, “METHODS OF TREATING PAIN ASSOCIATED WITH OSTEOARTHRITIS OF A JOINT WITH A TOPICAL FORMULATION OF A SPIRO-OXINDOLE COMPOUND” (IVAX International GmbH, priority 2014, published 2015).
Where “and” joins values, the source holds several entries; their conditions need not be identical. Identical values can stand only once.

Tests used:
[1] = domestic pig joint penetration study: concentration in plasma; format: in vivo; conditions: for concentration in plasma, individual animals: 3.0 μL/cm^2 bid
Procedure: This study was conducted to evaluate the joint penetration, systemic plasma exposure and tissue distribution of the spiro-oxindole compound in domestic pigs following topical administration of a pharmaceutical composition utilized in the methods of the invention. Fifteen female pigs were used in this study with three pigs in each group. Beginning on Day 1, a pharmaceutical composition of the invention was topically applied to the left radiocarpal joint (carpus) and tibiotarsal joint (hock) twice daily (bid) for 17 days (34 applications) for Groups 1-4 and once daily (qd) for 17 days (17 applications) for Group 5. Pre-dose blood samples (prior to morning dosing) was collected on Days 2, 7, 10, 14 and 17. A full pharmacokinetic sampling was performed on Day 17 (post am dosing) at the following time points: 1, 2, 4, 8 and 12 hr. On the day of necropsy, Day 18, blood was collected prior to euthanasia, each pig was humanely euthanized and dorsal skin and muscle, liver, kidney, heart, lung, brain, intestine, fat, ovaries, urinary bladder, sciatic nerve, and skin, muscle, synovial membrane, and synovial fluid from all 4 joints (2 treated, left carpus and hock, and 2 untreated, right carpus and hock) was collected.
The dose volume (μL/cm^2) for the test pharmaceutical compositions was 3.0 μL/cm^2 for Groups 1, 2, 3 and 5 and 1.0 μL/cm^2 for Group 4.
Approximately 2 mL of whole blood was collected prior to the morning dose administration on Days 2, 7, 10, 14 and 17. A full pharmacokinetic profile sampling was performed on Day 17 after the morning dose administration at the following time points: 1, 2, 4, 8 and 12 hr. On the day of necropsy, Day 18, blood was collected prior to euthanasia.

[2] = minipig repeated dermal dosing: spiro-oxindole compound in plasma (LC-MS/MS); format: in vivo, Göttingen minipig; conditions: minipigs
Procedure: The study was carried out on minipigs to obtain information on plasma pharmacokinetics, tissue distribution and accumulation, excretion and metabolic profile of the spiro-oxindole compound after daily dermal administration of a pharmaceutical composition of the invention for 20 consecutive days followed by a single dose of [^14C]-spiro-oxindole compound Day 21.
Midazolam was administered on Days 0 and 20 to 3 male minipigs by bolus intravenous injection at a dose level 0.5 mg/kg.
The [^14C]-spiro-oxindole composition was prepared as follows:
Dosages of test formulations were applied with foil and spread using nitrile gloves to form a thin uniform layer to the treatment site.

[3] = biological target: NaV1.7 (Homo sapiens, UniProt Q15858); test: block of NaV1.7 (inactivated vs resting state); format: biochemical
Chain of NaV1.7 (Q15858 whole entry): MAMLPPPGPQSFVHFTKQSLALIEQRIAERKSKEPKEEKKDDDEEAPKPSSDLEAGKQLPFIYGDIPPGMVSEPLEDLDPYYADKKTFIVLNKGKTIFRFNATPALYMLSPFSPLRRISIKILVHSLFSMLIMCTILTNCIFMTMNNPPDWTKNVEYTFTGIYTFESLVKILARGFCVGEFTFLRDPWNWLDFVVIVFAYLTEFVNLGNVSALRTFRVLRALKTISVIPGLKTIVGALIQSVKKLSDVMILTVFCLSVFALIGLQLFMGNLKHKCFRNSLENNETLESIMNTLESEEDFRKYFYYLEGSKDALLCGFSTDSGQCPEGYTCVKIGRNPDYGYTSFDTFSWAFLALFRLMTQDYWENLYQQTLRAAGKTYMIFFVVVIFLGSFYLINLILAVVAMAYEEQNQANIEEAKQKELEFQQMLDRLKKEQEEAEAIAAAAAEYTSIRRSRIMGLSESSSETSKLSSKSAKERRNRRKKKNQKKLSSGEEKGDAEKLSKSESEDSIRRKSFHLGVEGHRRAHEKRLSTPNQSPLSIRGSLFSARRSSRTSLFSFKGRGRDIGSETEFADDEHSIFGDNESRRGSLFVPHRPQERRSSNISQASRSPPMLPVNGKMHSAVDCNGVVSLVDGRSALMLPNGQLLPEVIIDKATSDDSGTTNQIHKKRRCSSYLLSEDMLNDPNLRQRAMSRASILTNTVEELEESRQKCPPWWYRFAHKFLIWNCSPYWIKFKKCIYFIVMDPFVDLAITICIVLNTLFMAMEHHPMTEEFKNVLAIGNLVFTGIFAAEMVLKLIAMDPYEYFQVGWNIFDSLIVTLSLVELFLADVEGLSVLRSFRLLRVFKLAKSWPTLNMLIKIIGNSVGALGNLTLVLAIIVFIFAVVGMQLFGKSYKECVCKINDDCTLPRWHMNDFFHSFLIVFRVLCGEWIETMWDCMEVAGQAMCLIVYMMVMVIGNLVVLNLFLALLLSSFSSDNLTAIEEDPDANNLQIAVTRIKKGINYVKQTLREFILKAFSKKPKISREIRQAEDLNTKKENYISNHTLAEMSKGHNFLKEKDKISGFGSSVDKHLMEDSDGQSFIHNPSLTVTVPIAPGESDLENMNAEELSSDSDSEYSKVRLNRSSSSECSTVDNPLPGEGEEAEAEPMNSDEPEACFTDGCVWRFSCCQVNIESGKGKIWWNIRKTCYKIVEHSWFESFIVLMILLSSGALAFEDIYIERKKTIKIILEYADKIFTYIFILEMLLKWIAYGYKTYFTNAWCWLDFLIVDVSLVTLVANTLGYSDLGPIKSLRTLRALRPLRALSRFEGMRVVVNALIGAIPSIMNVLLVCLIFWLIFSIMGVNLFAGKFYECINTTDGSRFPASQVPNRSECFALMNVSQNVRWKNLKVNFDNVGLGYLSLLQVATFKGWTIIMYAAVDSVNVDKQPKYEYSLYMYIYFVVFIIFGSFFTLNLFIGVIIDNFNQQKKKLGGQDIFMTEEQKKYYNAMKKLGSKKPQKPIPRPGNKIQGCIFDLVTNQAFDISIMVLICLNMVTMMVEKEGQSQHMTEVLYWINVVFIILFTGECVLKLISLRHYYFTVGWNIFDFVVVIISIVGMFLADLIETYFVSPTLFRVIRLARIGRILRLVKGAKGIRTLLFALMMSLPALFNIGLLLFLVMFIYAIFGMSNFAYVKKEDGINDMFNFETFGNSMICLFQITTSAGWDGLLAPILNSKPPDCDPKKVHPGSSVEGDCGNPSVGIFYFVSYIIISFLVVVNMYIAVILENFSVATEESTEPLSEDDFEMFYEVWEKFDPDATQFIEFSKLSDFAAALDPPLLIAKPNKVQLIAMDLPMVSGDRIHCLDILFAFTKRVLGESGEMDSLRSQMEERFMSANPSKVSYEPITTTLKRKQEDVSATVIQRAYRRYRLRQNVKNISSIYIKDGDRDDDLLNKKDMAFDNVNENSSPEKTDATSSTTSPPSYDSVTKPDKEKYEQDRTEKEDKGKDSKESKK
Excerpt: NaV1.7 is expressed primarily in the peripheral nervous system in both sensory and sympathetic neurons (Raymond, C. K., et al., op. cit.). Loss-of-function mutations in SCN9A (the gene encoding the alpha subunit of the NaV1.7 sodium channel) cause a human condition known as congenital indifference to pain characterized by an inability to perceive pain (Cox, J. J., et al., Nature (2006), 444:894-98; Goldberg, Y. P., et al., Clin Genet (2007), 71:311-9). Gain-of-function mutations in SCN9A are associated with inherited erythromelalgia (IEM) (Drenth, J. P., et al., J Invest Dermatology (2005), 124:1333-8), which is characterized by spontaneous or easily evoked severe pain. Furthermore, up to 29% of biopsy-proven cases of idiopathic small-fiber neuropathy manifesting mainly as distal severe pain (Faber, C. G., et al., Ann Neurol (2012), 71:26-39) are associated with gain-of-function NaV1.7 channel mutations.

[4] = minipig: metabolite profile of urine and bile (UPLC); format: in vivo, Göttingen minipig; conditions: none consistent with spiro-oxindole compound
Excerpt: Attempts to separate radioactive components using HPLC with radioactivity detection present in plasma, liver and excreta were unsuccessful due to low radioactivity levels in samples submitted for further analysis.

[5] = previous topical clinical studies (PHN and EM) overall; conditions: human, in vivo
Procedure: Although not previously studied in patients with osteoarthritis, a topical formulation of the spiro-oxindole compound of the invention has been tested in clinical studies and was well tolerated by patients with postherpetic neuralgia (PHN) and erythromelalgia.
In general, the maximal concentrations of the spiro-oxindole compound following topical application are determined under “maximal use conditions,” taking into consideration such factors as ointment strength, application volume, application surface area, and frequency and duration of dosing.
Nevertheless, the exposure level anticipated in this study is expected to be higher than that observed in any single patient population administered a therapeutic dose a topical pharmaceutical composition of the invention. This study is therefore intended to help in the selection of a topical dose and regimen of a topical pharmaceutical composition of the invention.

O=C1N(Cc2ccc(C(F)(F)F)o2)c2ccccc2[C@]12COc1cc3c(cc12)OCO3 [spiro-oxindole compound, (S)-1′-{[5-(trifluoromethyl)furan-2-yl]methyl}spiro[furo[2,3-f][1,3]benzodioxole-7,3′-indol]-2′(1′H)one]
concentration in plasma, individual animals ([1]; G1 (#1-#3): 2% composition, Day 2 Before dosing): 0.34 ng/mL | concentration in plasma, individual animals ([1]; G1 (#1-#3): 2% composition, Day 7 Before dosing): 0.97 ng/mL | concentration in plasma, individual animals ([1]; G1 (#1-#3): 2% composition, Day 10 Before dosing): 1.54 ng/mL | concentration in plasma, individual animals ([1]; G1 (#1-#3): 2% composition, Day 14 Before dosing): 1.10 ng/mL | concentration in plasma, individual animals ([1]; G1 (#1-#3): 2% composition, Day 17 1 hour after dosing): 1.21 ng/mL | concentration in plasma, individual animals ([1]; G1 (#1-#3): 2% composition, Day 17 2 hour after dosing): 1.07 ng/mL | concentration in plasma, individual animals ([1]; G1 (#1-#3): 2% composition, Day 17 4 hour after dosing): 1.04 ng/mL | concentration in plasma, individual animals ([1]; G1 (#1-#3): 2% composition, Day 17 8 hour after dosing): 1.30 ng/mL | concentration in plasma, individual animals ([1]; G1 (#1-#3): 2% composition, Day 17 12 hour after dosing): 11.38 ng/mL | concentration in plasma, individual animals ([1]; G1 (#1-#3): 2% composition, Day 17 Before dosing): 2.70 ng/mL | concentration in plasma, individual animals ([1]; G1 (#1-#3): 2% composition, Day 18): 1.60 ng/mL | concentration in plasma, individual animals ([1]; G2 (#4-#6): 4% composition, Day 2 Before dosing): 0.84 ng/mL and 0.86 ng/mL | concentration in plasma, individual animals ([1]; G2 (#4-#6): 4% composition, Day 7 Before dosing): 1.73 ng/mL | concentration in plasma, individual animals ([1]; G2 (#4-#6): 4% composition, Day 10 Before dosing): 1.79 ng/mL | concentration in plasma, individual animals ([1]; G2 (#4-#6): 4% composition, Day 14 Before dosing): 2.47 ng/mL | concentration in plasma, individual animals ([1]; G2 (#4-#6): 4% composition, Day 17 1 hour after dosing): 2.47 ng/mL | concentration in plasma, individual animals ([1]; G2 (#4-#6): 4% composition, Day 17 2 hour after dosing): 3.47 ng/mL | concentration in plasma, individual animals ([1]; G2 (#4-#6): 4% composition, Day 17 4 hour after dosing): 2.72 ng/mL | concentration in plasma, individual animals ([1]; G2 (#4-#6): 4% composition, Day 17 8 hour after dosing): 1.94 ng/mL | concentration in plasma, individual animals ([1]; G2 (#4-#6): 4% composition, Day 17 12 hour after dosing): 12.17 ng/mL and 15.72 ng/mL | concentration in plasma, individual animals ([1]; G2 (#4-#6): 4% composition, Day 17 Before dosing): 3.25 ng/mL | concentration in plasma, individual animals ([1]; G2 (#4-#6): 4% composition, Day 18): 5.41 ng/mL and 2.83 ng/mL | plasma concentration / systemic exposure (in words) ([1]; domestic pig, topical administration to a joint): nanomolar | Cmax ([2]; male, Göttingen, minipig, plasma, topical or ocular, 70 mg spiro-oxindole compound equivalents ointment/kg, 21 days repeated dermal dosing, read-out: mean maximum observed concentration [Cmax]): 11.7 ng/mL | time post dose at which mean plasma concentrations were maximal ([2]; after last dose (Day 21)): 8 h | apparent steady state achieved ([2]; repeated dermal dosing): between Days 14 and 21 | systemic exposure overall (in words) ([2]; repeated dermal dosing): low systemic exposure | potency of the block, inactivated state compared with resting state ([3]; NaV1.7): approximately 220 fold | IC50 ([3]; inactivated state): 0.05 µM | IC50 ([3]; resting state): 11.3 µM | radioactive peaks observed by UPLC ([4]; bile (gall bladder contents)): another two peaks | radioactive peaks observed by UPLC ([4]; urine): two distinct peaks | highest observed individual plasma concentration [5]: 14.5 ng/mL
